Patent publication US6410328B1, “Sensitizing cells to compounds using lipid-mediated gene and compound delivery” (Protiva Biotherapeutics Inc., priority 1998, dated 2002)

Key:
[1] = in vivo; settings: female, C57BL/6, mouse, iv, 25 mg/kg
Protocol: Groups of four female C57BL/6 mice per time point were injected subcutaneously with 150,000 B16 tumor cells. The tumors were grown for 14 days at which time a single iv dose of free GCV or liposomal GCV was given via the lateral tail vein. This dose, given in a total of 200 μL, contained approximately 5.6 mg (10 μmoles) lipid and 0.5 mg (1.96 μmoles) GCV resulting in lipid and GCV doses of 300 mg/kg and 25 mg/kg, respectively. Circulating levels of lipid and GCV were determined at 15 min, 1, 8, 24 and 48 hrs for the liposomal GCV groups. Levels of GCV were determined at 15 min and 1 hr for the free GCV groups. At each time point, animals were anesthetized with ketamine/xylazine and blood was collected via cardiac puncture. Blood was put into EDTA coated microtainers and spun at 500 g for 10 min in order to pellet blood cells and obtain plasma. Lipid and GCV levels in the plasma were determined. Lipid and GCV were measured by counting ^14C-CHE and ^3H-GCV. One hundred or 200 μL aliquots of plasma were measured on a Beckman LS3801 scintillation counter. […]
Tumor bearing mice were treated intravenously with 25 mg/kg of free or liposomal GCV. Lipid and GCV were quantified using ^14C-CHE and ^3H-GCV labels. […] Free ganciclovir is rapidly cleared from the tumor, with only 1.1+/−0.1 % of the total injected dose per gram of tumor detected at 1 hr. […]

[2] = Plasma clearance and in vivo release of free and liposomal GCV in B16 tumored mice (Example 9); design: species or system mouse; settings: 1 hr after single iv dose, 25 mg/kg GCV
Protocol: Large unilamellar vesicles were prepared according to the method of Hope, et al., Biochem. Biophys. Acta. 812:55-65 (1985). 55 mole % sphingomyelin and 45 mole % of cholesterol were dissolved in chloroform with a drop of methanol and approximately 0.035 μCi of ^14C-CHE. Lipids were dried down under a stream of nitrogen gas and the resulting lipid film was then placed under high vacuum for at least 3 hrs. A solution of ganciclovir containing ^3H-GCV was made up in 30% ethanol, 70% HBS (20 mM Hepes, 145 mM NaCl pH 7.45) to 50 or 100 mg/mL depending on the sample size. The lipid to GCV weight ratio was initially 1 to 1. The GCV solution was added to the lipid film. […] The lipid concentration was determined by scintillation counting of ^14C-CHE label. The GCV concentration was determined by counting ^3H-GCV and a Bligh Dyer assay.
Groups of four female C57BL/6 mice per time point were injected subcutaneously with 150,000 B16 tumor cells. […] Circulating levels of lipid and GCV were determined at 15 min, 1, 8, 24 and 48 hrs for the liposomal GCV groups. Levels of GCV were determined at 15 min and 1 hr for the free GCV groups. […] Lipid and GCV levels in the plasma were determined. Lipid and GCV were measured by counting ^14C-CHE and ^3H-GCV. One hundred or 200 μL aliquots of plasma were measured on a Beckman LS3801 scintillation counter.

[3] = Organ biodistribution of free and liposomal GCV in B16 tumored mice (Example 10); assay type: in vivo, mouse
Protocol: Groups of four female C57BL/6 mice per time point were injected subcutaneously with 150,000 B16 tumor cells. The tumors were grown for 14 days at which time a single iv dose of free GCV or liposomal GCV was given via the lateral tail vein. This dose, given in a total of 200 μL, contained approximately 5.6 mg (10 μmoles) lipid and 0.5 mg (1.96 μmoles) GCV resulting in lipid and GCV doses of 300 mg/kg and 25 mg/kg, respectively. Circulating levels of lipid and GCV were determined at 15 min, 1, 8, 24 and 48 hrs for the liposomal GCV groups. Levels of GCV were determined at 15 min and 1 hr for the free GCV groups. At each time point, animals were anesthetized with ketamine/xylazine and blood was collected via cardiac puncture. Blood was put into EDTA coated microtainers and spun at 500 g for 10 min in order to pellet blood cells and obtain plasma. Lipid and GCV levels in the plasma were determined. Lipid and GCV were measured by counting ^14C-CHE and ^3H-GCV. One hundred or 200 μL aliquots of plasma were measured on a Beckman LS3801 scintillation counter.
Biodistribution data was collected from those mice that were in the pharmacokinetic studies. Following heart puncture, mice were terminated by cervical dislocation. Tissues were harvested from each animal and weighed. Saline was added to each organ prior to homogenization by either a Polytron homogenizer (livers) or a Fast Prep® machine. Tissues were solubilized in Solvable for 3 to 16 hr at 50° C. The samples were then cooled to room temperature before defoaming and decolourizing with EDTA and hydrogen peroxide respectively. Picofluorscintillation fluid was added to the samples prior to counting on the scintillation counter.

[4] = test system: B16 murine melanoma cells stably transfected with HSV-TK; test: Efficacy of liposomal ganciclovir in the B16TK tumor model (Example 11); assay type: in vivo, mouse; settings: day 18; 25 mg/kg ganciclovir every other day from day five, six injections
Protocol: FIG. 13 illustrates efficacy of liposomal ganciclovir in the B16TK tumor model. Female C57BL/6 mice were seeded subcutaneously in the hind flank with 150,000 B16 murine melanoma cells stably transfected with HSV-TK. Five days later, tumor measurement began. Starting on day five, mice were treated with liposomal or free GCV (25 mg/kg ganciclovir) or HBS (Hepes Buffered Saline) every other day for a total of six injections. Measurements at day 18 indicate that tumors in the control mice are 5-fold larger than those of the treated groups. Tumor volume was determined by measuring tumor in three dimensions with calipers.
Groups of 4 or 5 female C57BL/6 mice were injected intradermally with B16 cells stably transfected with HSV-TK. Once tumors were measurable (day 5), the mice were injected intravenously with liposomal GCV (25 mg/kg GCV). Injections were continued every other day for 6 injections. Tumor measurements were typically taken every other day.

tissue uptake at 1 h [1]: 1.1 %ID/g
injected dose remaining in circulation [2]: 0.4 % of the injected dose
GCV content of organs assayed (liver, lungs, spleen, kidneys) ([3]; 15 min and 1 hr, except kidneys at 15 min): essentially absent
GCV found in the kidneys ([3]; 15 minute time point): 3.5+/−1.8 % of the total injected dose
GCV found in the liver ([3]; 15 minutes after administration): 3.1+/−0.1 % of the initial injected dose
GCV in the spleen ([3]; 1 hr (peak for liposomal GCV)): 0.04+/−0.02 % of the total injected dose
Structure (SMILES): Nc1nc(O)c2ncn(COC(CO)CO)c2n1 [free GCV, ganciclovir]
tumor size in control HBS-treated mice relative to treated groups [4]: 5 fold
